This is an account of results in ChEMBL document CHEMBL1130946, “Highly efficient and versatile synthesis of libraries of constrained beta-strand mimetics” (Bioorg Med Chem Lett, 1998).

By Ki is commonly meant the equilibrium dissociation constant of an inhibitor or competing ligand from its target.

The first test deals with Kallikrein-1 (Homo sapiens, UniProt P06870). Briefly: Compound was evaluated for its inhibitory activity against Kallikrein.
Sequence of Kallikrein-1 (P06870 whole entry): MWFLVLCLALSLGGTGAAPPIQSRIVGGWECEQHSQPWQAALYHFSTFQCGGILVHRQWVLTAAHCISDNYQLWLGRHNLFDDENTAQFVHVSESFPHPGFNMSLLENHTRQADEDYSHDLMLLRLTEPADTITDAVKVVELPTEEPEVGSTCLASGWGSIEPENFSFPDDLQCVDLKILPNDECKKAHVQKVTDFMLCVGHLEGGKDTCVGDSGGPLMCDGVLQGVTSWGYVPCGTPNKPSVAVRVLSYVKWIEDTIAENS
`CC1(C)C2CC3C(=CC(C(=O)NC(CCCCN)C(=O)C(=O)NCCc4ccc(C(N)=O)cc4)n4c(=O)n(Cc5ccc(Cl)c(Cl)c5)c(=O)n43)C1C2` (stereo not drawn) registered a Ki of 31 nM.
Same read-out and setting: with `COC(=O)C1C(CCc2ccccc2)=CC(C(=O)NC(CCCCN)C(=O)C(=O)NCCc2ccc(C(N)=O)cc2)n2c(=O)n(Cc3cc(F)ccc3F)c(=O)n21` (stereo not drawn) the figure was 21 nM.

Another test concerns the target Tryptase (Homo sapiens, UniProt Q9BZJ3+Q15661+Q9NRR2). The test can be described thus: Compound was evaluated for its binding affinity to the tryptase. It counts as protein assay.
On to `CC1=CC(C(=O)NC(CCCCN)C(=O)C(=O)NCCc2ccc(C(N)=O)cc2)n2c(=O)n(C(c3ccccc3)c3ccccc3)c(=O)n2C1` (stereo not drawn), for which the Ki is reported as 5.9 nM. This lies in the single-digit nanomolar range.

The target in another test is Prothrombin (Homo sapiens, UniProt P00734). The test can be described thus: Compound was evaluated for its binding affinity to the thrombin.
For `CC1=CC(C(=O)NC(CCCCN)C(=O)C(=O)NCCc2ccc(C(N)=O)cc2)n2c(=O)n(CC(c3ccccc3)c3ccccc3)c(=O)n2C1` (stereo not drawn), the Ki was determined as 0.035 nM.
The compound `CCCCC1(CCCC)C(=O)N2CC(C)=CC(C(=O)NC(CCCCN)C(=O)C(=O)NCCc3ccc(C(N)=O)cc3)N2C1=O` (stereo not drawn) had a Ki of 0.2 nM. This Ki lies about 5.7-fold higher than the previous one.
The same measure, in the same setting: with `CCC1(N)C(=O)N2C(Cc3ccccc3)C=CC(C(=O)NC(CCCCN)C(=O)C(N)=O)N2C1=O` (stereo not drawn) the figure was 4.33 nM.
Still for that read-out and setting: with `C=CCC1(CC=C)C(=O)N2CC(C)=CC(C(=O)NC(CCCCN)C(=O)C(=O)NCCc3ccc(C(N)=O)cc3)N2C1=O` (stereo not drawn) the figure was 18 nM; with `CC1=CC(C(=O)NC(CCCCN)C(=O)C(=O)NCCc2ccc(C(N)=O)cc2)N2C(=O)C(CC(C)C)(CC(C)C)C(=O)N2C1` (stereo not drawn), 5.09 nM.
In the case of `CC1=CC(C(=O)NC(CCCCN)C(=O)C(=O)NCCc2ccc(C(N)=O)cc2)N2C(=O)C(Cc3ccccc3)(Cc3ccccc3)C(=O)N2C1` (stereo not drawn), the inhibition constant Ki came out at 1.89 nM.
On the same count and under the same terms, with `NCCCCC(NC(=O)C1C=CCn2c(=O)n(CC(c3ccccc3)c3ccccc3)c(=O)n21)C(=O)C(=O)NCCc1ccc(C(N)=O)cc1` (stereo not drawn) the figure was 0.3 nM.
The same measure, in the same setting: with `CC1=CC(C(=O)NC(CCCCN)C(=O)C(=O)NCc2ccc(C(N)=O)cc2)N2C(=O)C(N)(Cc3ccccc3)C(=O)N2C1` (stereo not drawn) the figure was 1.58 nM.

The target in a further test is Serine protease 1 (Homo sapiens, UniProt P07477). The test can be described thus: Compound was evaluated for its binding affinity to the trypsin enzyme.
Sequence of Serine protease 1 (P07477 whole entry): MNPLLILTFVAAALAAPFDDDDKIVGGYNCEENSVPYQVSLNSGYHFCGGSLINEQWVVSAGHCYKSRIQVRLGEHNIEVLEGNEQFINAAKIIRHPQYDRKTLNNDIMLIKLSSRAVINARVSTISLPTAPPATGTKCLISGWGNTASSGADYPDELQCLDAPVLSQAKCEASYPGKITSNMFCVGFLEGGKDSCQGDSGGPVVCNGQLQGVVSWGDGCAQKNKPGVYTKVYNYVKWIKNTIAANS
As to `COc1ccc(-n2c(=O)n3n(c2=O)C(C(=O)NC(CCCCN)C(=O)C(=O)NCCc2ccc(C(N)=O)cc2)C=CC3CC(C)C)cc1` (stereo not drawn), the affinity, expressed as Ki, was 0.28 nM.
`CC(C)CCn1c(=O)n2n(c1=O)C(C(=O)NC(CCCCN)C(=O)C(=O)NCCc1ccc(C(N)=O)cc1)C=CC2CC(C)C` (stereo not drawn): the affinity corresponds to a Ki of 0.43 nM.
